Columns and labels:
[1] = test system: persian speedwell; assay: Test Example 4: herbicidal effect by soil treatment (Table 19, symbol R); type: in vivo, Persian speedwell (Veronica persica); conditions: amount of applied herbicide 320 g/ha
Procedure, shortened: (§1)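 Applied as a water-diluted emulsion, the compound was sprayed onto soil covering newly sown seeds. Evaluation came three weeks after application, in a greenhouse held at 25° C. to 30° C.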

[2] = test system: Japanese bulrush; assay: Test Example 2: herbicidal activity, application during weed generation under submerged conditions (Table 17, symbol B); type: in vivo, Japanese bulrush (Schoenoplectus juncoides); conditions: application during weed generation under submerged conditions; amount of applied herbicide 320 g/ha
Procedure, shortened: (§2)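 In this pot test, flooded alluvial soil (water depth 4 cm) holds all three species sown as a mixture. Once seedlings have one to two leaves, the compound's emulsion, thinned with water to the intended dose, is poured on the water; grading follows after three weeks on the earlier criteria.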

[3] = test system: chickweed; assay: Test Example 4: herbicidal effect by soil treatment (Table 19, symbol P); type: in vivo, common chickweed (Stellaria media); conditions: amount of applied herbicide 320 g/ha
Procedure, shortened: as §1

[4] = test system: chickweed; assay: Test Example 5: herbicidal effect by foliage application, plastic box (Table 20, symbol P); type: in vivo, common chickweed (Stellaria media); conditions: foliage application, 320 g/ha, evaluated 3 weeks after application
Procedure, shortened: (§3)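 Sow seeds spot-wise in sterilized diluvial soil; cover with ~1.5 cm soil. Grow 14 days in greenhouse, 25° C. to 30° C. Spray foliage with emulsion diluted to predetermined amount. Rate effect after 3 weeks.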

[5] = test system: late watergrass; assay: Test Example 2: herbicidal activity, application during weed generation under submerged conditions (Table 17, symbol A); type: in vivo, late watergrass (Echinochloa oryzicola); conditions: application during weed generation under submerged conditions; amount of applied herbicide 320 g/ha
Procedure, shortened: as §2

[6] = test system: wild oat; assay: Test Example 4: herbicidal effect by soil treatment (Table 19, symbol I); type: in vivo, wild oat (Avena fatua); conditions: amount of applied herbicide 320 g/ha
Procedure, shortened: as §1

[7] = test system: Italian ryegrass; assay: Test Example 4: herbicidal effect by soil treatment (Table 19, symbol K); type: in vivo, Italian ryegrass (Lolium multiflorum); conditions: amount of applied herbicide 320 g/ha
Procedure, shortened: as §1

[8] = test system: lambsquarters; assay: Test Example 4: herbicidal effect by soil treatment (Table 19, symbol O); type: in vivo, lambsquarters (Chenopodium album); conditions: amount of applied herbicide 320 g/ha
Procedure, shortened: as §1

[9] = test system: southern crabgrass; assay: Test Example 5: herbicidal effect by foliage application, plastic box (Table 20, symbol F); type: in vivo, southern crabgrass (Digitaria ciliaris); conditions: foliage application, 320 g/ha, evaluated 3 weeks after application
Procedure, shortened: as §3

[10] = test system: blackgrass; assay: Test Example 5: herbicidal effect by foliage application, plastic box (Table 20, symbol J); type: in vivo, blackgrass (Alopecurus myosuroides); conditions: foliage application, 320 g/ha, evaluated 3 weeks after application
Procedure, shortened: as §3

[11] = test system: velvetleaf; assay: Test Example 5: herbicidal effect by foliage application, plastic box (Table 20, symbol M); type: in vivo, velvetleaf (Abutilon theophrasti); conditions: foliage application, 320 g/ha, evaluated 3 weeks after application
Procedure, shortened: as §3

[12] = test system: blackgrass; assay: Test Example 4: herbicidal effect by soil treatment (Table 19, symbol J); type: in vivo, blackgrass (Alopecurus myosuroides); conditions: amount of applied herbicide 320 g/ha
Procedure, shortened: as §1

[13] = test system: late watergrass; assay: Test Example 1: herbicidal activity, application before weed generation under submerged conditions (Table 16, symbol A); type: in vivo, late watergrass (Echinochloa oryzicola); conditions: amount of applied herbicide 320 g/ha
Procedure, shortened: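 Alluvial soil was flooded to 4 cm depth, weed seeds were sown mixed and 2.5-leaf rice seedlings were transplanted. On sowing day, the compound's emulsion, diluted in water to a set dose, was applied to the water surface. Plants grew at 25–30 °C and were scored 0–5 after three weeks.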

[14] = test system: redroot pigweed; assay: Test Example 5: herbicidal effect by foliage application, plastic box (Table 20, symbol N); type: in vivo, redroot pigweed (Amaranthus retroflexus); conditions: foliage application, 320 g/ha, evaluated 3 weeks after application
Procedure, shortened: as §3

[15] = test system: oval-leafed pondweed; assay: Test Example 2: herbicidal activity, application during weed generation under submerged conditions (Table 17, symbol C); type: in vivo, oval-leafed pondweed (Monochoria vaginalis); conditions: application during weed generation under submerged conditions; amount of applied herbicide 320 g/ha
Procedure, shortened: as §2

[16] = test system: Italian ryegrass; assay: Test Example 5: herbicidal effect by foliage application, plastic box (Table 20, symbol K); type: in vivo, Italian ryegrass (Lolium multiflorum); conditions: foliage application, 320 g/ha, evaluated 3 weeks after application
Procedure, shortened: as §3

[17] = test system: false cleavers; assay: Test Example 4: herbicidal effect by soil treatment (Table 19, symbol Q); type: in vivo, false cleavers (Galium spurium); conditions: amount of applied herbicide 320 g/ha
Procedure, shortened: as §1

Compound	R: persian speedwell, herbicidal effect grade [1]	herbicidal effect grade, B: Japanese bulrush [2]	P: chickweed, herbicidal effect grade [3]	P (chickweed) herbicidal effect grade [4]	herbicidal effect grade, A: late watergrass [5]	I: wild oat, herbicidal effect grade [6]	K: Italian ryegrass, herbicidal effect grade [7]	O: lambsquarters, herbicidal effect grade [8]	F (southern crabgrass) herbicidal effect grade [9]	J (blackgrass) herbicidal effect grade [10]	M (velvetleaf) herbicidal effect grade [11]	J: blackgrass, herbicidal effect grade [12]	Herbicidal effect, A: late watergrass [13]	N (redroot pigweed) herbicidal effect grade [14]	herbicidal effect grade, C: oval-leafed pondweed [15]	K (Italian ryegrass) herbicidal effect grade [16]	Q: false cleavers, herbicidal effect grade [17]
Cc1ccc2oc(-c3ccc(OCC(C)C)cc3)c(-c3c(O)c(C)nn(C)c3=O)c2c1 [9-051]	5 (Herbicidal rate of 90% or more (almost completely withered))	4 (Herbicidal rate of 70% or more and less than 90%)	5 (Herbicidal rate of 90% or more (almost completely withered))	5 (Herbicidal rate of 90% or more (almost completely withered))	5 (Herbicidal rate of 90% or more (almost completely withered))	0 (Herbicidal rate of 5% or less (almost no effect))	5 (Herbicidal rate of 90% or more (almost completely withered))	5 (Herbicidal rate of 90% or more (almost completely withered))	5 (Herbicidal rate of 90% or more (almost completely withered))	5 (Herbicidal rate of 90% or more (almost completely withered))	5 (Herbicidal rate of 90% or more (almost completely withered))	5 (Herbicidal rate of 90% or more (almost completely withered))	5 (Herbicidal rate of 90% or more (almost completely withered))	5 (Herbicidal rate of 90% or more (almost completely withered))	5 (Herbicidal rate of 90% or more (almost completely withered))	5 (Herbicidal rate of 90% or more (almost completely withered))	
CSc1ccc(-c2oc3ccc(C)cc3c2-c2c(O)c(C)nn(C)c2=O)cc1 [9-055]	5 (Herbicidal rate of 90% or more (almost completely withered))	3 (Herbicidal rate of 40% or more and less than 70%)	5 (Herbicidal rate of 90% or more (almost completely withered))	5 (Herbicidal rate of 90% or more (almost completely withered))	4 (Herbicidal rate of 70% or more and less than 90%)	0 (Herbicidal rate of 5% or less (almost no effect))	5 (Herbicidal rate of 90% or more (almost completely withered))	4 (Herbicidal rate of 70% or more and less than 90%)	4 (Herbicidal rate of 70% or more and less than 90%)	5 (Herbicidal rate of 90% or more (almost completely withered))	5 (Herbicidal rate of 90% or more (almost completely withered))		5 (Herbicidal rate of 90% or more (almost completely withered))	5 (Herbicidal rate of 90% or more (almost completely withered))	3 (Herbicidal rate of 40% or more and less than 70%)	5 (Herbicidal rate of 90% or more (almost completely withered))	0 (Herbicidal rate of 5% or less (almost no effect))
CCSc1ccc(-c2oc3ccc(C)cc3c2-c2c(O)c(C)nn(C)c2=O)cc1 [9-057]	5 (Herbicidal rate of 90% or more (almost completely withered))	3 (Herbicidal rate of 40% or more and less than 70%)	5 (Herbicidal rate of 90% or more (almost completely withered))	5 (Herbicidal rate of 90% or more (almost completely withered))	5 (Herbicidal rate of 90% or more (almost completely withered))	0 (Herbicidal rate of 5% or less (almost no effect))	5 (Herbicidal rate of 90% or more (almost completely withered))	5 (Herbicidal rate of 90% or more (almost completely withered))	5 (Herbicidal rate of 90% or more (almost completely withered))	5 (Herbicidal rate of 90% or more (almost completely withered))	5 (Herbicidal rate of 90% or more (almost completely withered))	0 (Herbicidal rate of 5% or less (almost no effect))	5 (Herbicidal rate of 90% or more (almost completely withered))	5 (Herbicidal rate of 90% or more (almost completely withered))	4 (Herbicidal rate of 70% or more and less than 90%)	5 (Herbicidal rate of 90% or more (almost completely withered))	
COCCOc1ccc(-c2oc3ccc(C)cc3c2-c2c(O)c(C)nn(C)c2=O)cc1 [9-063]	5 (Herbicidal rate of 90% or more (almost completely withered))	4 (Herbicidal rate of 70% or more and less than 90%)	4 (Herbicidal rate of 70% or more and less than 90%)	5 (Herbicidal rate of 90% or more (almost completely withered))	5 (Herbicidal rate of 90% or more (almost completely withered))	0 (Herbicidal rate of 5% or less (almost no effect))	5 (Herbicidal rate of 90% or more (almost completely withered))	5 (Herbicidal rate of 90% or more (almost completely withered))	5 (Herbicidal rate of 90% or more (almost completely withered))	5 (Herbicidal rate of 90% or more (almost completely withered))	5 (Herbicidal rate of 90% or more (almost completely withered))	5 (Herbicidal rate of 90% or more (almost completely withered))	5 (Herbicidal rate of 90% or more (almost completely withered))	5 (Herbicidal rate of 90% or more (almost completely withered))	4 (Herbicidal rate of 70% or more and less than 90%)	5 (Herbicidal rate of 90% or more (almost completely withered))	
Cc1nn(C)c(=O)c(-c2c(-c3ccc(Cl)cc3)sc3cccc(F)c23)c1O [11-001]	5 (Herbicidal rate of 90% or more (almost completely withered))	3 (Herbicidal rate of 40% or more and less than 70%)	4 (Herbicidal rate of 70% or more and less than 90%)	5 (Herbicidal rate of 90% or more (almost completely withered))	2 (Herbicidal rate of 20% or more and less than 40%)	0 (Herbicidal rate of 5% or less (almost no effect))	0 (Herbicidal rate of 5% or less (almost no effect))	4 (Herbicidal rate of 70% or more and less than 90%)	0 (Herbicidal rate of 5% or less (almost no effect))	0 (Herbicidal rate of 5% or less (almost no effect))	5 (Herbicidal rate of 90% or more (almost completely withered))		3 (Herbicidal rate of 40% or more and less than 70%)	5 (Herbicidal rate of 90% or more (almost completely withered))	3 (Herbicidal rate of 40% or more and less than 70%)	3 (Herbicidal rate of 40% or more and less than 70%)	0 (Herbicidal rate of 5% or less (almost no effect))
